Measurements published in patent publication US11702402B2, “Small molecules that block proteasome-associated ubiquitin receptor RPN13 function and uses thereof” (DANA-FARBER CANCER INSTITUTE, INC., priority 2018, dated 2023).
Where a SMILES comes first, the peptide text is derived from it. The star is where a group is joined. Cbz = O=C(OCc1ccccc1)*

What was measured:
[1] = system: normal PBMCs; test: Viability of normal PBMCs; type: cell-based, Human; conditions: at the IC50; 48 hours; Wst-1
Method: FIGS. 5A and 5B show PBMCs from normal healthy donor treated with WL40 and WL44 at the indicated concentrations for 48 hours. […]
The IC50 of WL40 for cell lines is shown.

[2] = system: MM.1S CRBN KO cells; test: MM.1S CRBN KO cell viability; type: cell-based, Human; conditions: MM.1S-CRBN KO; 24 hours; Wst-1
Excerpt: FIGS. […] Wst-1 assay was used to test cell viability.
The experiment was repeated twice and JQRA concentration was increased (as indicated) at the second time.

[3] = system: Ub-tagged GFP that is constitutively targeted for proteasomal degradation; test: Ub-GFP (GFPu-1) reporter cell line immunoblot; type: cell-based; conditions: WL40, WL44 0.5-2.0 μM; RA190 1 μM; 16 hours
Method: Cell lysates were loaded on SDS-PAGE, transferred to PVDF membrane, then immunoblotted with anti-GFP, and anti beta-actin antibodies.
In FIG. 18, a reporter cell line expressing Ub-tagged GFP that is constitutively targeted for proteasomal degradation was treated with RA190 ([…]); and JQRA ([…]) for 16 hours. Cell lysates were loaded on SDS-PAGE, transferred to PVDF membrane, then immunoblotted with anti-GFP, and anti-alpha tubulin antibodies.
FIGS. 19A-19I show the exemplary design and characterization of exemplary Rpn13 degrader WL40. […] WL40 was created by linking the Rpn13 inhibitor RA190 to the IMiD thalidomide as a ligand for the CRBN E3 ligase via a PEG linker. […] FIG. 19C is a schematic cartoon for the novel AlphaScreen assay to measure the binding activity of inhibitor with RPN13 proteins. […] FIG. 19E depicts immunoblot analysis of multiple myeloma 1S (MM.1S) cells, which were treated with WL40 or RA190 at the indicated concentrations and time periods; protein lysates were subjected to the immunoblot analysis using anti-Rpn13 or anti-tubulin Abs. FIG. 19F depicts flow cytometry analysis of MM.1S cells, which were treated with DMSO control, WL40 (400 nM), or RA190 (500 nM) for 16 hours; cells were then washed and stained with Rpn13 Ab conjugated with AlexaFluor-647, followed by the flow cytometry analysis. Isotype Ab conjugated to AlexaFluor-647 was used as control for non-specific binding. Data was quantified using FACS Diva (BD Biosciences, USA) and FlowJo (FlowJo LLC, USA). FIG. 19G depicts immunoblot analysis of MM.1S-CRBN KO cells, which were treated with WL40 (400 nM) or RA190 (500 nM) for 16 hours; protein lysates were subjected to the immunoblot analysis using anti-Rpn13 or anti β-actin Abs. […]
To confirm that CRBN presence is a prerequisite for the function of WL40 in cells, CRBN-knockout (KO) MM.1S cells^27, 38 were utilized, and the effect of WL40 on Rpn13 degradation was examined. […] GFPu-1 cells were treated with WL40, and GFP levels were then analyzed using immunoblotting. […]

[4] = system: HCT116 and HCT116-Rpn13KO cell lines; test: HCT116 and HCT116-Rpn13KO cell viability; type: cell-based; conditions: HCT116 versus HCT116-Rpn13KO; 48 hours; Wst-1
Method: FIGS. 8A and 8B show HCT116 and HCT116-Rpn13KO cell lines that were treated with WL40 or WL44 at the indicated concentrations for 48 hours. Wst-1 assay was used to test cell viability.
CRISPR-Cas9 genome editing was performed to generate Rpn13-knockout (Rpn13-KO) HCT116 and MM.1S cell lines. Cells were transfected with Rpn13-CRISPR/Cas9-knockout (KO) plasmid (Santa Cruz Biotechnology, Inc., Santa Cruz, Calif., USA) using Lipofectamine 2000 (Thermo Fisher Scientific, Waltham, Mass., USA) or the cell line Nucleofector Kit V (Amaxa Biosystems, Cologne, Germany), respectively. After 48 h incubation, green fluorescent protein (GFP)-positive cells were sorted. Rpn13 KO was confirmed by both protein expression studies and DNA sequencing.

[5] = target: RPN13 (Homo sapiens, UniProt Q16186); test: Rpn13 immunoblot in MM.1S cells; type: cell-based; parameters: endogenous in cells; host or cells: MM.1S; MM.1S-CRBN KO; RPMI-8226; ANBL6.BR
Chain of RPN13 (Q16186 whole entry): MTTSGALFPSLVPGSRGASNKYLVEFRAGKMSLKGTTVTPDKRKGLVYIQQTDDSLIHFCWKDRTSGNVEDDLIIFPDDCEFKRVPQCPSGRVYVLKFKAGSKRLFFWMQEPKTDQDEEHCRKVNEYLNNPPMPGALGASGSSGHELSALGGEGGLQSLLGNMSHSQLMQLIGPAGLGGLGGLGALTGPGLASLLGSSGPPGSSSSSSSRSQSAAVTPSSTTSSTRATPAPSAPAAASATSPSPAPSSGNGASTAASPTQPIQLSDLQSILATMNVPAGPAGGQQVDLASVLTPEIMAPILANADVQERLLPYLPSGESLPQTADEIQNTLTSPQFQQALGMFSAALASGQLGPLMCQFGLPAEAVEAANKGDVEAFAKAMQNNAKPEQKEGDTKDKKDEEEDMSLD
Method: Protein lysates were loaded on SDS-PAGE and transferred to PVDF membrane, and then immunoblotted with anti-alpha tubulin and Rpn13 antibodies.
In FIG. 17, MM.1S cells were treated with RA190 or JQRA at 200 nM and 400 nM, respectively, for 48 hours; and treated with RA190 or JQRA at 200 nM and 800 nM, respectively, for 48 hours. Protein lysates were loaded on SDS-PAGE and transferred to PVDF membrane, and then immunoblotted with anti-alpha tubulin and Rpn13 antibodies.
MM.1S cells, which were treated with DMSO control, bortezomib, or WL40 at indicated concentration for 3 hours; protein lysates were analyzed for different proteasome activities (CT-L, chymotrypsin-like; T-L, trypsin-like; C-L, caspase-like). FIG. 20B is a bar graph showing percent proteasome activity after normalization with DMSO control (mean±SD; n=3). Recombinant 20S proteasome was incubated with DMSO, bortezomib, or WL40 for 30 minutes, followed by assessment of the above-noted proteasome activities. FIG. 20C MM.1S cells were pretreated with exemplary proteasome inhibitor MG132 (10 μM) for 1 hour, followed by addition of WL40 (400 nM) for 8 hours. […] Total protein lysates were subjected to immunoblots for Rpn13 and α-tubulin. […] FIG. 20E ANBL6.BR cells were treated with WL40 (400 nM) or RA190 (500 nM) for 16 hours; protein lysates were subjected to immunoblot analysis using anti-Rpn13 or anti-β-actin Abs.
Cellular protein extracts were prepared using RIPA lysis buffer (50 mM Tris-HCl, 150 mM NaCl, 1% NP-40, 0.5% sodium deoxycholate, and 0.1% SDS). Protein lysates were subjected to immunoblotting using antibodies against poly ADP ribose polymerase (PARP, BD Bioscience Pharmingen, San Diego, Calif.), caspase 3, caspase 8, p53 (Santa Cruz Biotechnology), caspase 9, p-eIF2a (Abeam, Cambridge, Mass.), caspase 7, cyclin B1, CDC25C, CDCl2, p21, Rpn13, PERK, BIP, Calnexin, GFP, LC3A/B, α-tubulin (Cell Signaling, Beverly, Mass.), polyubiquitin (Enzo Life Sciences, Inc., Farmingdale, N.Y.), or β-actin (Sigma-Aldrich, St. Louis, Mo.).
Next, it was examined whether WL40 decreases cellular Rpn13 levels in MM cells. MM.1S cells were treated with various concentrations of WL40 (20 0 nM, 400 nM, or 800 nM) for 4 hours, 8 hours, and 16 hours; protein lysates were then analyzed for Rpn13 levels using immunoblot analysis. […] Decrease in Rpn13 levels was detectable as early as 8 hours after WL40 treatment and maximally (95%) reduced at 16 hours. Rpn13 protein level reduction was not observed with RA190 treatment (FIG. 19E, lower panel). There was no change in protein levels of tubulin, used as a loading control (FIG. 19E). To further corroborate the findings, MM.1S cells were treated with WL40, and then analyzed intracellular alterations in Rpn13 using flow cytometry.

[6] = system: MM.1S cells; test: MM.1S cell viability (WST); conditions: 24 hours, Wst-1
Method: FIGS. 4A and 4B show multiple myeloma 1S (MM.1S) cells treated with RA190, WL40, and WL44 at the indicated concentrations for 24 hours. Wst-1 assay was used to test cell viability.
In FIG. 13B, multiple myeloma cells (MM.1S) were treated with RA190 or compound JQRA at the indicated concentrations for 72 hours, and the percentage of viable cells was measured.
Purified CD138^+ patient MM cells, which were treated with DMSO control or WL40 at indicated concentrations for 48 hours, followed by assessment for cell viability using CellTiter-Glo assay (mean±SD of triplicate cultures; p<0.001). […] Normal PBMCs from healthy donors were treated with DMSO control or WL40 at indicated concentrations for 48 hours, and then analyzed for cell viability using CellTiter-Glo assay (mean±SD of quadruplicate cultures). […] MM.1S cells were cultured with or without patient BMSCs in the presence or absence of WL40 for 48 hours, and cell proliferation was measured by WST assay (mean±SD; n=3; p<0.0001). […] MM.1S cells were cultured with or without patient pDCs in the presence or absence of WL40 for 48 hours, and cell proliferation was measured by WST assay (mean±SD; n=3; p<0.0001).

[7] = system: multiple myeloma cell lines; test: Viability of a panel of multiple myeloma cell lines; type: cell-based, Human; conditions: multiple myeloma cell lines; 48 hours; Wst-1
Excerpt: FIGS. […] Wst-1 assay was used to test cell viability. FIGS. 6A and 6B show the effect of exemplary bifunctional compounds WL40 and WL44 on multiple myeloma cell lines.

Structure (SMILES) | viability of normal PBMCs [1] | cell viability [2] | Ub-GFP levels / proteasome function (immunoblot) [3] | RPN13 dependence of cytotoxicity [4] | Rpn13 levels (immunoblot) ([5]; MM.1S cells, 200 nM, 400 nM, 800 nM, 4, 8, 16 hours) | cell viability IC50 [6] | cell viability IC50 [7] | WL40-mediated Rpn13 degradation after proteasome inhibitor pretreatment ([5]; MM.1S, MG132 (10 μM) 1 hour, then WL40 (400 nM) 8 hours)
O=C1CCC(N2C(=O)c3ccc(NCCOCCOCCOCCC(=O)N[C@H](Cc4ccccc4)C(=O)N4C/C(=C\c5ccc(Cl)c(Cl)c5)C(=O)/C(=C/c5ccc(Cl)c(Cl)c5)C4)cc3C2=O)C(=O)N1 (some centres unmarked) [WL44] | do not significantly affect the viability | decrease cell viability | block proteasome function | RPN13-dependent | degrade Rpn13 | lower IC50 compared to compound RA190 | high IC50 in several cell lines | 
CC(C)C[C@@H](C=O)NC(=O)[C@H](CC(C)C)NC(=O)[C@H](CC(C)C)NC(=O)OCc1ccccc1 [MG132, reference compound] (Cbz-Leu-Leu-Leu-aldehyde) |  |  |  |  |  |  |  | blocked WL40-mediated Rpn13 degradation
